Experimental data published in paper PMC5449569, “Basal late sodium current is a significant contributor to the duration of action potential of guinea pig ventricular myocytes” (Physiological Reports, 2017).

Molecular target: T1, NaV1.5 channel (native basal late sodium current, INaL) (Cavia porcellus, UniProt H0V4Z8)
T1 construct: gene SCN5A; native channel in isolated guinea pig ventricular myocytes
Test: whole-cell patch clamp of late Na+ current, single concentration ([…])
Format: cell-based
Settings: read-out: % inhibition at 2 mmol/L

T1 sequence (H0V4Z8 1-2015): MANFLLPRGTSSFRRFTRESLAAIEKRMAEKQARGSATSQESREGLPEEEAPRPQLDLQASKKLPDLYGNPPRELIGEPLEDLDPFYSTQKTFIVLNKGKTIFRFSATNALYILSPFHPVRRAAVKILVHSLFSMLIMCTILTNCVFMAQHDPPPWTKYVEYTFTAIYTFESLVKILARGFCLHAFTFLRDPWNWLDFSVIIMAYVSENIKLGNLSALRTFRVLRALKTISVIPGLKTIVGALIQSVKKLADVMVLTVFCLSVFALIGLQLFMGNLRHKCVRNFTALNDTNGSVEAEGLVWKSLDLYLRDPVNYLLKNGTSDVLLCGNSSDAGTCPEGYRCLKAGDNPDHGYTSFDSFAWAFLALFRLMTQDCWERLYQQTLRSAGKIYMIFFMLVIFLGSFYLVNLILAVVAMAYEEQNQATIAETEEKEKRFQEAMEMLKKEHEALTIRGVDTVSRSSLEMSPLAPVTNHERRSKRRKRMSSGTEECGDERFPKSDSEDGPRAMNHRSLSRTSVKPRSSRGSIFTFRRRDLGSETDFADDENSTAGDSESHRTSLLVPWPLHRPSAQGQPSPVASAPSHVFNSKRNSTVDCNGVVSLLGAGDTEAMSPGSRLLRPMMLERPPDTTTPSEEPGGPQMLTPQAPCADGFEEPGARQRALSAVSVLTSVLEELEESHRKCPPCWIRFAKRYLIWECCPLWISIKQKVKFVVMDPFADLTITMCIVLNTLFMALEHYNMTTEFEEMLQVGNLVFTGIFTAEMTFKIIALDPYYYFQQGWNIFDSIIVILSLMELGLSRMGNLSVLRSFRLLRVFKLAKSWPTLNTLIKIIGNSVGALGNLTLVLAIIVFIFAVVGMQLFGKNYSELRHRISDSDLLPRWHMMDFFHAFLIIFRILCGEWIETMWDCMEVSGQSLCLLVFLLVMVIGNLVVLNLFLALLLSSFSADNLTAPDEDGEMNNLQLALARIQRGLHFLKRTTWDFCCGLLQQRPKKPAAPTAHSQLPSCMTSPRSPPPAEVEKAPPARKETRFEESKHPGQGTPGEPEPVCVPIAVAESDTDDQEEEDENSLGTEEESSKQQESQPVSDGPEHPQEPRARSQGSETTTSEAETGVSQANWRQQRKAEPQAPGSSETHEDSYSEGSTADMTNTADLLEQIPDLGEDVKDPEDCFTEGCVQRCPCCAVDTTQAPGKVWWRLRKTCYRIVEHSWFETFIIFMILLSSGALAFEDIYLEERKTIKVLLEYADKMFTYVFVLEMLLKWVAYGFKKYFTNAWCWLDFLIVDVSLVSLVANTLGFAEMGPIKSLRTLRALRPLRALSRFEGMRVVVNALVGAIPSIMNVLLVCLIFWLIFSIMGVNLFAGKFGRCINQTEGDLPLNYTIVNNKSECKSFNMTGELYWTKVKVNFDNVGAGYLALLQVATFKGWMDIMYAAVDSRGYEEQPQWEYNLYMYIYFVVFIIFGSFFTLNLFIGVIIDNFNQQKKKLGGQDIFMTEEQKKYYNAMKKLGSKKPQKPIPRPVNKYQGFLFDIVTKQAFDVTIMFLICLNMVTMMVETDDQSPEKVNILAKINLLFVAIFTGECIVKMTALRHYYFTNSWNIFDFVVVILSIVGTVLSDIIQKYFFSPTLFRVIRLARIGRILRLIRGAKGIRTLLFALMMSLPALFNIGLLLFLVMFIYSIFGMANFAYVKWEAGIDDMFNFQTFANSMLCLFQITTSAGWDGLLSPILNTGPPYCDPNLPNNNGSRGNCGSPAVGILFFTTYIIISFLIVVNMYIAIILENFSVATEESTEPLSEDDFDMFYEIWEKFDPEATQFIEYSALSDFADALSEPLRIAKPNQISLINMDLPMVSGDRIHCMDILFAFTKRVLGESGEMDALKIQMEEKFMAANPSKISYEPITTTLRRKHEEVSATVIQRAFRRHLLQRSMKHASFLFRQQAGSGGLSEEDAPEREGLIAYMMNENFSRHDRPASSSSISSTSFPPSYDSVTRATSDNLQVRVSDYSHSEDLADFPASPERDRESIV

CS(=O)(=O)SCCN [MTSEA]
inhibition at 2000 µM: 90 ± 5%
